Source: patent US20200101103A1, “REINFORCEMENT OF MUCUS BARRIER PROPERTIES” (CIRQLE BIOMEDICAL CONTRACEPTION IVS, priority 2017, published 2020)

system: purified porcine gastric mucin; assay: Effect of muco-adhesive amino acid polymers on mucin gels (light microscopy); conditions: 5 mg/mL polymer, 4 μl mucin drop, 3 min to 50 min of contact
Method: (§1) FIG. 7 illustrates the effect of low or high molecular weight muco-adhesive polymers on mucin gels. A 4 μl drop of purified porcine gastric mucin was placed in a solution of poly-L-arginine (PLA, DP 11 corresponding to 1.9 kDa, 5 mg/mL), poly-L-lysine (PLL, DP 11 corresponding to 1.6 kDa, 5 mg/mL), or poly-L-lysine (PLL, DP 400 corresponding to 66 kDa, 5 mg/mL). The drop of mucin was observed under the microscope (10x objective). The three images are taken after 3 min, 12 min 30, and 50 min of contact.
as §1, with “Effect” for “FIG. 7 illustrates the effect”, “(PLA,” for “(PLA, DP 11 corresponding to”, “(PLL,” for “(PLL, DP 11 corresponding to”, “(PLL,” for “(PLL, DP 400 corresponding to”, “(10×” for “(10x”

Substance	effect on mucin gel drop
poly-L-arginine [PLA, 1.9 kDa]	clearly crosslinks the mucin in depth
poly-L-lysine [PLL, 1.6 kDa]	clearly crosslinks the mucin in depth
poly-L-lysine [PLL, 66 kDa, reference compound]	changes the structure of the mucins drop and compacts it significantly
